Experimental data as given in the OligoGym collection.
Oligonucleotides are written 5' to 3', each unit as a sugar letter and its base; * is a phosphorothioate linkage, no mark a phosphodiester; rarer units and linkages stand in square brackets, end groups in braces. Plain capitals give the bases only. d = 2'-deoxy (DNA); r = 2'-OH (RNA)

These substances were tested against RHOQ (assay: reporter assay of Huesken 2005). Settings: siRNA.
Note: test concentration or dose not given here.

Substance | normalised inhibition (eCFP-eYFP dual reporter)
sense rArArUrGrCrUrCrArUrArUrCrArGrUrCrArCrAdTdT / antisense rUrGrUrGrArCrUrGrArUrArUrGrArGrCrArUrUdTdA | 76%
sense rArCrArCrUrArArArCrUrUrUrUrArUrArCrUrUdTdT / antisense rArArGrUrArUrArArArArGrUrUrUrArGrUrGrUdTdC | 76.1%
sense rArCrArGrArUrUrGrGrGrUrArArUrGrGrArArCdTdT / antisense rGrUrUrCrCrArUrUrArCrCrCrArArUrCrUrGrUdGdC | 47.1%
sense rArCrUrUrUrCrUrUrArUrUrUrArArUrUrUrUrGdTdT / antisense rCrArArArArUrUrArArArUrArArGrArArArGrUdTdA | 43.6%
sense rArGrArUrUrGrGrGrUrArArUrGrGrArArCrArCdTdT / antisense rGrUrGrUrUrCrCrArUrUrArCrCrCrArArUrCrUdGdT | 72%
sense rArGrGrArUrGrUrArCrUrGrUrCrUrUrGrUrUrGdTdT / antisense rCrArArCrArArGrArCrArGrUrArCrArUrCrCrUdAdG | 81.7%
sense rArUrArArArArUrUrGrArArArGrGrArArUrUrGdTdT / antisense rCrArArUrUrCrCrUrUrUrCrArArUrUrUrUrArUdCdT | 36.4%
sense rArUrArArArUrCrArArUrUrArArCrArUrArUrUdTdT / antisense rArArUrArUrGrUrUrArArUrUrGrArUrUrUrArUdAdC | 38.4%
sense rArUrArArUrGrGrArUrGrCrArUrCrArGrArUrAdTdT / antisense rUrArUrCrUrGrArUrGrCrArUrCrCrArUrUrArUdCdT | 80.8%
sense rArUrCrArGrUrCrArCrArArArUrCrUrArGrGrAdTdT / antisense rUrCrCrUrArGrArUrUrUrGrUrGrArCrUrGrArUdAdT | 75.3%
sense rArUrCrUrUrArUrGrUrArArCrUrUrUrCrUrUrAdTdT / antisense rUrArArGrArArArGrUrUrArCrArUrArArGrArUdTdC | 59.1%
sense rArUrGrGrArArCrArCrUrArArArCrUrUrUrUrAdTdT / antisense rUrArArArArGrUrUrUrArGrUrGrUrUrCrCrArUdTdA | 82.1%
sense rArUrGrGrArArUrCrUrUrArUrGrUrArArCrUrUdTdT / antisense rArArGrUrUrArCrArUrArArGrArUrUrCrCrArUdTdT | 51.1%
sense rArUrGrGrArUrGrCrArUrCrArGrArUrArArUrGdTdT / antisense rCrArUrUrArUrCrUrGrArUrGrCrArUrCrCrArUdTdA | 82.5%
sense rCrArArArUrCrUrArGrGrArUrGrUrArCrUrGrUdTdT / antisense rArCrArGrUrArCrArUrCrCrUrArGrArUrUrUrGdTdG | 79.4%
sense rCrArArGrArArArUrGrGrUrGrGrUrUrCrArCrAdTdT / antisense rUrGrUrGrArArCrCrArCrCrArUrUrUrCrUrUrGdGdA | 84.9%
sense rCrArCrArUrUrArArArGrUrArUrCrArUrGrGrCdTdT / antisense rGrCrCrArUrGrArUrArCrUrUrUrArArUrGrUrGdAdA | 62.4%
sense rCrArGrArUrArArUrGrGrArUrGrCrArUrCrArGdTdT / antisense rCrUrGrArUrGrCrArUrCrCrArUrUrArUrCrUrGdAdT | 80.4%
sense rCrArGrArUrUrGrGrGrUrArArUrGrGrArArCrAdTdT / antisense rUrGrUrUrCrCrArUrUrArCrCrCrArArUrCrUrGdTdG | 86.3%
sense rCrArUrGrCrArUrCrArGrArUrArArUrGrGrArUdTdT / antisense rArUrCrCrArUrUrArUrCrUrGrArUrGrCrArUrGdGdC | 72.3%
sense rCrArUrUrUrArArArCrUrUrGrCrUrGrUrUrGrCdTdT / antisense rGrCrArArCrArGrCrArArGrUrUrUrArArArUrGdTdA | 74.6%
sense rCrArUrUrUrGrGrArUrGrUrCrUrUrCrUrUrUrCdTdT / antisense rGrArArArGrArArGrArCrArUrCrCrArArArUrGdTdC | 73.6%
sense rCrCrUrUrArUrGrUrArUrGrCrUrCrArArArUrGdTdT / antisense rCrArUrUrUrGrArGrCrArUrArCrArUrArArGrGdCdC | 65.1%
sense rCrUrArCrArUrUrUrArArArCrUrUrGrCrUrGrUdTdT / antisense rArCrArGrCrArArGrUrUrUrArArArUrGrUrArGdGdA | 82.5%
sense rCrUrCrArArArUrGrGrArArUrCrUrUrArUrGrUdTdT / antisense rArCrArUrArArGrArUrUrCrCrArUrUrUrGrArGdCdA | 55.5%
sense rCrUrGrGrArUrGrArCrUrGrGrCrCrArGrGrArAdTdT / antisense rUrUrCrCrUrGrGrCrCrArGrUrCrArUrCrCrArGdTdA | 75.7%

Substance | normalised inhibition (eCFP-eYFP dual reporter)
sense rCrUrGrUrGrGrArUrCrUrGrCrCrUrUrArUrUrGdTdT / antisense rCrArArUrArArGrGrCrArGrArUrCrCrArCrArGdCdA | 79%
sense rCrUrUrArUrGrUrArUrGrCrUrCrArArArUrGrGdTdT / antisense rCrCrArUrUrUrGrArGrCrArUrArCrArUrArArGdGdC | 44%
sense rCrUrUrArUrUrUrArArUrUrUrUrGrGrUrCrUrGdTdT / antisense rCrArGrArCrCrArArArArUrUrArArArUrArArGdAdA | 52.2%
sense rCrUrUrCrUrUrUrCrUrUrCrCrArArGrArArArUdTdT / antisense rArUrUrUrCrUrUrGrGrArArGrArArArGrArArGdAdC | 53.7%
sense rGrArArArGrGrArArUrUrGrUrArUrArArArUrCdTdT / antisense rGrArUrUrUrArUrArCrArArUrUrCrCrUrUrUrCdAdA | 51.4%
sense rGrArGrArGrUrCrUrArCrUrGrGrArUrGrArCrUdTdT / antisense rArGrUrCrArUrCrCrArGrUrArGrArCrUrCrUrCdTdC | 77.3%
sense rGrCrArUrCrArGrArUrArArUrGrGrUrGrUrUrAdTdT / antisense rUrArArCrArCrCrArUrUrArUrCrUrGrArUrGrCdAdT | 92.8%
sense rGrGrArUrGrUrCrUrUrCrUrUrUrCrUrUrCrCrAdTdT / antisense rUrGrGrArArGrArArArGrArArGrArCrArUrCrCdAdA | 83.2%
sense rUrArArArGrUrArUrCrArUrGrGrCrCrUrUrArUdTdT / antisense rArUrArArGrGrCrCrArUrGrArUrArCrUrUrUrAdAdT | 75.9%
sense rUrArCrUrGrGrArUrGrArCrUrGrGrCrCrArGrGdTdT / antisense rCrCrUrGrGrCrCrArGrUrCrArUrCrCrArGrUrAdGdA | 55.2%
sense rUrArGrCrUrArUrGrUrCrUrArCrUrGrCrArCrAdTdT / antisense rUrGrUrGrCrArGrUrArGrArCrArUrArGrCrUrAdTdA | 86.8%
sense rUrArUrArGrCrUrArUrGrUrCrUrArCrUrGrCrAdTdT / antisense rUrGrCrArGrUrArGrArCrArUrArGrCrUrArUrAdAdG | 77.6%
sense rUrArUrGrCrCrArUrGrCrArUrCrArGrArUrArAdTdT / antisense rUrUrArUrCrUrGrArUrGrCrArUrGrGrCrArUrAdTdG | 75.7%
sense rUrArUrGrCrUrCrArArArUrGrGrArArUrCrUrUdTdT / antisense rArArGrArUrUrCrCrArUrUrUrGrArGrCrArUrAdCdA | 54.7%
sense rUrCrArCrArUrGrArCrUrUrGrArGrCrUrUrArUdTdT / antisense rArUrArArGrCrUrCrArArGrUrCrArUrGrUrGrAdAdT | 87%
sense rUrCrGrGrArCrArUrUrUrGrGrArUrGrUrCrUrUdTdT / antisense rArArGrArCrArUrCrCrArArArUrGrUrCrCrGrAdTdT | 83%
sense rUrCrUrUrArUrUrUrArArUrUrUrUrGrGrUrCrUdTdT / antisense rArGrArCrCrArArArArUrUrArArArUrArArGrAdAdA | 44.2%
sense rUrGrArArArArUrGrArCrArGrCrCrUrUrArArAdTdT / antisense rUrUrUrArArGrGrCrUrGrUrCrArUrUrUrUrCrAdAdG | 78.8%
sense rUrGrArArGrArGrUrGrGrArGrArGrArGrUrCrUdTdT / antisense rArGrArCrUrCrUrCrUrCrCrArCrUrCrUrUrCrAdAdT | 70.7%
sense rUrGrArArUrCrGrGrArCrArUrUrUrGrGrArUrGdTdT / antisense rCrArUrCrCrArArArUrGrUrCrCrGrArUrUrCrAdGdA | 38.9%
sense rUrGrArCrUrUrGrArGrCrUrUrArUrArGrCrUrAdTdT / antisense rUrArGrCrUrArUrArArGrCrUrCrArArGrUrCrAdTdG | 84.9%
sense rUrGrCrArUrCrArGrArUrArArUrGrGrUrGrUrUdTdT / antisense rArArCrArCrCrArUrUrArUrCrUrGrArUrGrCrAdTdC | 61.6%
sense rUrGrCrArUrUrUrUrArGrArGrArArArCrArArUdTdT / antisense rArUrUrGrUrUrUrCrUrCrUrArArArArUrGrCrAdTdT | 84.9%
sense rUrGrCrCrArUrGrCrArUrCrArGrArUrArArUrGdTdT / antisense rCrArUrUrArUrCrUrGrArUrGrCrArUrGrGrCrAdTdA | 59.7%
sense rUrGrCrUrCrArUrArUrCrArGrUrCrArCrArArAdTdT / antisense rUrUrUrGrUrGrArCrUrGrArUrArUrGrArGrCrAdTdT | 83.6%
sense rUrGrCrUrGrUrUrGrCrCrCrArArArUrUrArUrAdTdT / antisense rUrArUrArArUrUrUrGrGrGrCrArArCrArGrCrAdAdG | 85.6%
